Laboratory results: patent US11021481B2, “Substituted isoindolin-1-ones and 2,3-dihydro-1h-pyrrolo[3,4-c]pyridin-1-ones as HPK1 antagonists” (Nimbus Saturn, Inc., priority 2019, dated 2021)
pIC50: −log10 of the molar value.

The molecules below were run against HPK1 (Homo sapiens (Human), UniProt Q92918) (assay: HPK1 biochemical enzyme assay (microfluidic mobility shift assay)). Conditions: 1.5 nM HPK1, ATP 1 mM final, 30 min preincubation, 60 min at RT, Caliper EZ Reader; read-out: HPK1 1000UMATP caliper IC50.
Method in brief: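 Ten-point compound titrations (top 3 μM final) preincubated 30 min with HPK1 and substrate, then reaction started with 1 mM ATP and 1 μM substrate, 5 mM MgCl2. After 60 min at RT, reaction terminated and product measured by microfluidic mobility shift.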

HPK1, sequence (Q92918 whole entry): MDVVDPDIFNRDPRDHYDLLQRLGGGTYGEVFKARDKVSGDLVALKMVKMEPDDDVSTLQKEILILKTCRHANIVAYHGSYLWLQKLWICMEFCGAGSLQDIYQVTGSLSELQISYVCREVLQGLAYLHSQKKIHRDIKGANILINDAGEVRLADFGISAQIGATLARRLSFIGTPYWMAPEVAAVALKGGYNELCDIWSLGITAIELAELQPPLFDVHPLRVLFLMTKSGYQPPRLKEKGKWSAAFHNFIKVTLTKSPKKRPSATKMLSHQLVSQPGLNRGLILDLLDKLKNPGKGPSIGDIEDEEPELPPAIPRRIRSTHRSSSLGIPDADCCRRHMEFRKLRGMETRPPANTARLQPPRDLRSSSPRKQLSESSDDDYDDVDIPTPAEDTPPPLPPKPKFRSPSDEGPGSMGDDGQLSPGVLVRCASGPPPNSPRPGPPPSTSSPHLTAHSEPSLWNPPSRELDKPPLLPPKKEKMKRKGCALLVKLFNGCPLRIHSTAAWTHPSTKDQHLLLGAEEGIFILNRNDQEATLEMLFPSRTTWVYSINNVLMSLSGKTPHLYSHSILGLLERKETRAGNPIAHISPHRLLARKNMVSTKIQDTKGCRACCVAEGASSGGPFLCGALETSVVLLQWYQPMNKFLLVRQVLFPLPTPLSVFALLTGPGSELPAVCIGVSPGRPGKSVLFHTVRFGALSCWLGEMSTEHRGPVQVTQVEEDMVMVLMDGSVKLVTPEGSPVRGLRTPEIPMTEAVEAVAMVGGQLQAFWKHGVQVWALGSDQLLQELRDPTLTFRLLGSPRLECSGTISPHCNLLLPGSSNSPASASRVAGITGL

Row | pIC50 | SMILES
1 | 6.00 to 7.00 | Cc1ncc2c(-c3ccc(Nc4ccc(N5CCC(O)CC5)cn4)c4c3CNC4=O)cccn12 [I-180, 7-[[5-(4-hydroxy-1-piperidyl)-2-pyridyl]amino]-4-(3-methyliminidazo [1.5-a]pyridin-8-yl)isoindolin-1-one]
2 | > 7.00 | O=C1NCc2c(-c3cnc4cc(C5CC5)ccn34)ccc(Nc3ccc(N4CCC(O)CC4)cn3)c21 [I-181, 4-(7-cyclopropyl-imidazo[1,2-a]pyridin-3-yl)-7-[[5-(4-hydroxy-1-piperidyl)-2-pyridyl]amino] isoindolin-1-one]
3 | > 7.00 | N#Cc1ccn2c(-c3ccc(Nc4ccc(N5CCC(O)CC5)cn4)c4c3CNC4=O)cnc2c1 [I-182, 3-[7-[[5-(4-hydroxy-1-piperidyl)-2-pyridyl]amino]-1-oxo-isoindolin-4-yl]imidazo[1,2-a]pyridine-7-carbonitrile]
4 | > 7.00 | N#Cc1ccn2c(-c3ccc(Nc4ccc(N5CCOCC5)cn4)c4c3CNC4=O)cnc2c1 [I-183, 3-[7-[(5-morpholino-2-pyridyl)amino]-1-oxo-isoindolin-4-yl]imidazo[1,2-a]pyridine-7-carbonitrile]
5 | > 7.00 | Cc1cnn2c(-c3ccc(Nc4ccc(N5CCC(O)CC5)cn4)c4c3CNC4=O)cnc2c1 [I-184, 7-[[5-(4-hydroxy-1-piperidyl)-2-pyripyl]amino]-4-(7-methylimidazo [1,2-b]pyridazin-3-yl)isoindolin-1-one]
6 | 6.00 to 7.00 | CCOc1c(C#N)ccn2c(-c3ccc(Nc4ccc(N5CCC(O)CC5)cn4)c4c3CNC4=O)cnc12 [I-185, 8-ethoxy-3-[7-[[5-(4-hydroxy-1-piperidyl)-2-pyripyl]amino]-1-oxo-isoindolin-4-yl]imidazo[1,2-a]pyridine-7-carbonitrile]
7 | > 7.00 | O=C1NCc2c(-c3cnc4cc(Cl)ccn34)ccc(Nc3ccc(N4CCC(O)CC4)cn3)c21 [I-187, 4-(7-chloroimidazo [1,2-a]pyridin-3-yl)-7-[[5-(4-hydroxy-1-piperidyl)-2-pyridyl]amino] isoindolin-1-one]
8 | > 7.00 | N#Cc1ccn2c(-c3ccc(Nc4ccc(N5CCC(O)CC5)cn4)c4c3CNC4=O)cnc2c1F [I-188, 8-fluoro-3-[7-[[5-(4-hydroxy-1-piperidyl)-2-pyridyl]amino]-1-oxo-isoindolin-4-yl]imidazo[1,2-a]pyridine-7-carbonitrile]
9 | 6.00 to 7.00 | N#Cc1ccn2c(-c3ncc(Nc4ccc(N5CCOCC5)cn4)c4c3CNC4=O)cnc2c1 [I-189, 3-[7-[(5-morpholino-2-pyridyl)-amino]-1-oxo-2,3-dihydropyrrolo [3,4-c]pyridin-4-yl]imidazo[1,2-a]pyridine-7-carbonitrile]
10 | > 7.00 | Cn1ccc2c(-c3c(Cl)cc(Nc4ccc(N5CCC(O)CC5)cn4)c4c3CNC4=O)ccnc21 [I-190, 5-chloro-7-[[5-(4-hydroxy-1-piperidyl)-2-pyridyl]amino]-4-(1-methylpyrrolo[2,3-b]pyridin-4-yl)isoindolin-1-one]
11 | > 7.00 | Cc1ccn2c(-c3ccc(Nc4ccc([C@H]5CCOC5)cn4)c4c3CNC4=O)cnc2c1 [I-191, (R)-4-(7-methylimidazo [1,2-a]pyridin-3-yl)-7-((5-(tetrahydro-furan-3-yl)pyridin-2-yl)amino)isoin-dolin-1-one]
12 | > 7.00 | Cc1ccn2c(-c3ccc(Nc4ccc([C@@H]5CCOC5)cn4)c4c3CNC4=O)cnc2c1 [I-192, (S)-4-(7-methylimidazo [1,2-a]pyridin-3-yl)-7-((5-(tetrahydro-furan-3-yl)pyridin-2-yl)amino)isoin-dolin-1-one]
13 | > 7.00 | O=C1NCc2c(-c3ccnc4[nH]ccc34)ncc(Nc3ccc(N4CCC(O)CC4)cn3)c21 [I-193, 7-[[5-(4-hydroxy-1-piperidyl)-2-pyridyl]-amino]-4-(1H-pyrrolo[2,3-b]pyridin-4-yl)-2,3-dihydropyrrolo [3,4-c]pyridin-1-one]
14 | > 7.00 | O=C1NCc2c(-c3cnc4cc(C(F)F)ccn34)ccc(Nc3ccc(N4CCC(O)CC4)cn3)c21 [I-194, 4-[7-(difluorometh-yl)imidazo[1,2-a]pyridin-3-yl]-7-[[5-(4-hydroxy-1-piperidyl)-2-pyripyl]amino] isoindolin-1-one]
